# Experimental data taken from US20030060493A1, “Repinotan kit” (priority 2000, published 2003).
# Test system: stroke or craniocerebral trauma
# Assay: Clinical studies in healthy subjects and patients after stroke or craniocerebral trauma
# Assay type: in vivo, human
smiles,measurement,setting,value
"O=C1c2ccccc2S(=O)(=O)N1CCCCNCC1CCc2ccccc2O1 (stereo in doubt) [repinotan, 2-[4-({[(2R)-chroman-2-yl]methyl}amino)butyl]-1,2-benzisothiazol-3(2H)-one 1,1-dioxide]",neurological and functional deficits,after 3 and 6 months respectively depending on indication,possible to improve the neurological and functional deficits
same,tolerability,healthy subjects and patients after a stroke or craniocerebral trauma,good tolerability
same,result of treatment versus placebo,patients who reached blood plasma concentrations of about 5-20 μg/l,markedly better
